The target in assay [1] is T1, Streptococcus pneumoniae NanB fragment (residues 30-697, SEQ ID NO:4) variant Sia-PS2, D270A (Streptococcus pneumoniae serotype 4, UniProt Q54727, D270A).
T1 construct: exemplified by a NanB fragment (residues 30-697); made in house; host or cells: pET28a+ based plasmid
T1 sequence (Q54727 30-692 D270A): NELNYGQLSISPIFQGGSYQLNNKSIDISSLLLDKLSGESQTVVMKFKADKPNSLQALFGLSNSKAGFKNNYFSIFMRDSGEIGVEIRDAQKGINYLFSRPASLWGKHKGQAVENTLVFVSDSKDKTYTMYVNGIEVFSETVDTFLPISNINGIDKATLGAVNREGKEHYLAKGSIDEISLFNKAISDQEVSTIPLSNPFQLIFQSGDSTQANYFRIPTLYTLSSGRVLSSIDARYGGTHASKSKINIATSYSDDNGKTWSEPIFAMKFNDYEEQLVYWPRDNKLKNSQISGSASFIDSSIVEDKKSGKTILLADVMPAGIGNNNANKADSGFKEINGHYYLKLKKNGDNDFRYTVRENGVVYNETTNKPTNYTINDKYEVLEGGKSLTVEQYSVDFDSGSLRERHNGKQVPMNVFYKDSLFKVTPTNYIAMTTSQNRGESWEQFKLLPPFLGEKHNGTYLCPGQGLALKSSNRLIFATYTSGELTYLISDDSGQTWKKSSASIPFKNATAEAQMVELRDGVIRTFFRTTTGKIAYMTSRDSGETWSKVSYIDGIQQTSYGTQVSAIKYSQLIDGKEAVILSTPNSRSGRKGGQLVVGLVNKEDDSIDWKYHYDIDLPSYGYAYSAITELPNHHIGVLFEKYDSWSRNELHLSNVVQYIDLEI
Kind of assay: Bio-layer Interferometry (BLI) steady-state binding to immobilized oligosaccharides. The note with it: in words. The text has this: (§1) Lsp=lactose (no sialic acid), 3′SL=α2,3-sialyllactose, 6′SL=α2,6-sialyllactose, GD3=GD3 oligosaccharide that contains a terminal α2,8-linked Neu5Ac residue and an internal α2,3-linked Neu5Ac residue.
(§2) The pan-specific sialic acid-recognizing affinity reagent of the invention is exemplified by a NanB fragment (residues 30-697; SEQ ID NO:4) with a single mutation. Exemplary mutation sites include Y653, D270, and E541. Exemplary pan-specific affinity reagents, each having a single mutation in the NanB GH domain as noted, are shown in Table 2 and include Sia-PS1 (Y653F), Sia-PS2 (D270A), Sia-PS3 (D270N), Sia-PS4 (E541A), and Sia-PS5 (E541Q). […] They reduce (Sia-PS2 and Sia-PS3) or effectively eliminate (Sia-PS1, Sia-PS4, and Sia-PS5) catalytic activity, and they broaden specificity for sialic acid ligand binding. The pan-specific sialic acid-recognizing affinity reagent we chose for further validation study was Sia-PS1 that contains the Y653F at active site residue Tyr653. This one mutation, which involves removal of a single hydroxyl group, not only eliminates enzyme activity, but astonishingly introduces pan-specific binding into the mutated, inactivated enzyme, despite its distance from the carbohydrate binding module (CBM) domain of the NanB.
(§3) The flowchart presented in FIG. 2 outlines schematically the methods employed in Example I and II to screen, optimize and select the Lectenz® candidates. The specificity and affinity of potential Lectenz® candidates is evaluated through structurally-guided site-specific and/or site-saturation mutagenesis assays designed to enable the selection of optimal clones. Bio-layer Interferometry (BLI) is used to determine the binding kinetics and affinities for binding to glycans and glycoproteins. Affinity chromatography is performed by immobilizing the Lectenz® candidates in a column format to evaluate their ability to fractionate sialylated- and asialo-glycans and glycoconjugates. All promising Lectenz® candidates are screened against the glycan array at the CFG, which currently contains over 600 O- and N-linked glycans.
(§4) Steady-state binding constants between Lectenz® candidates and sialic acid ligands were measured by BLI.
On the technique in general: BLI is a label-free optical method that tracks binding on a fibre tip over time.

Assay [2] concerns the target T2, Streptococcus pneumoniae NanB fragment (residues 30-697, SEQ ID NO:4) variant Sia-PS4, E541A (Streptococcus pneumoniae serotype 4, UniProt Q54727, E541A).
T2 construct: exemplified by a NanB fragment (residues 30-697); poly-histidine; made in house; host or cells: pET28a+ based plasmid
T2 sequence (Q54727 30-692 E541A): T1 sequence (Q54727 30-692 D270A) with A241D, E512A
The assay is described as above. The note with it: in words.
Text: as §1, §2, §3, §4

SMILES strings stand for the structures. Residue numbers refer to the chain shown, from its start.

As to `CC(=O)N[C@H]1[C@H]([C@H](O)[C@H](O)CO)O[C@@](O[C@H]2[C@@H](O)[C@@H](CO)O[C@@H](O[C@H]3[C@H](O)[C@@H](O)C(O)O[C@@H]3CO)[C@@H]2O)(C(=O)O)C[C@@H]1O` (stereo partly drawn) [3′SL, α2,3-sialyllactose], the KD value entry in assay [1] is listed as “higher KD value”; in assay [2], “sub-micromolar”. The binding affinity result in assay [1] and in assay [2] was “micromolar or sub-micromolar” throughout.
In the case of `CC(=O)N[C@H]1[C@H]([C@H](O)[C@H](O)CO)O[C@@](OC[C@H]2O[C@@H](O[C@H]3[C@H](O)[C@@H](O)C(O)O[C@@H]3CO)[C@H](O)[C@@H](O)[C@H]2O)(C(=O)O)C[C@@H]1O` (some centres unmarked) [6′SL, 6′-sialyllactose (Neu5Acα2,6Galβ1, 4Glcβ, or 6′SL)], the binding affinity result in assay [1] and in assay [2] was “micromolar or sub-micromolar” in each case.
`CC(=O)N[C@H]1[C@H]([C@H](O)[C@H](O)CO)O[C@@](O[C@H](CO)[C@@H](O)[C@@H]2O[C@@](O[C@H]3[C@@H](O)[C@@H](CO)O[C@@H](O[C@H]4[C@H](O)[C@@H](O)C(O)O[C@@H]4CO)[C@@H]3O)(C(=O)O)C[C@H](O)[C@H]2NC(C)=O)(C(=O)O)C[C@@H]1O` (some centres unmarked) [GD3, Neu5Acα2,8Neu5Acα2,3Galβ1, 4Glcβ]: the binding affinity entry in assay [1] and in assay [2] was “micromolar or sub-micromolar” throughout.

For the origin of these results see US11434479B2, “Sialic acid binding polypeptide” (priority 2017, dated 2022).
